Experimental data as given in US10941158B2, “Pyrazole ACC inhibitors and uses thereof” (Gilead Apollo, LLC, priority 2015, dated 2021).
≈ marks a conversion by molar mass, not a printed value. Read-outs that look alike come from different tables or passages of the source.

Columns and labels:
C. albicans ATCC 90028 = test: Anti-Fungal (Candida) Activity Assay, broth microtiter MIC; type: cell-based; details: read-out: MIC C. albicans ATCC 90028
Procedure, shortened: (§1)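 Broth microdilution per CLSI M27-A3 in RPMI 1640 + MOPS, with inocula from colonies grown 24 h at 35 °C on Sabouraud dextrose agar and set by standard curve. Compounds came from 1 mg/mL DMSO stocks. MIC was read visually against the growth control at 48 h.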

[1] = test system: C. parapsilosis ATCC 22019; test: as above; type: cell-based; details: Lodderomyces parapsilosis, read-out: MIC C. parapsilosis ATCC 22019
Procedure, shortened: as §1

C. krusei ATCC 6258 = test: as above; type: cell-based; details: Pichia kudriavzevii, read-out: MIC C. krusei ATCC 6258
Procedure, shortened: as §1

[2] = test system: Collectotrichum graminicola (Cg); test: Growth inhibition assay of fungal pathogens; type: cell-based; details: 48 h, read-out: Concentration at 90% Inhibition Cg
Procedure, shortened: (§2)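 Liquid-culture assay in which test compounds are applied at three final concentrations (50, 10, 2 ppm or 2, 0.4, 0.08 ppm). Inoculum levels follow 48 h growth curves for each fungus. Growth is monitored by OD600 and by eye, and the 48 h values give % inhibition against DMSO.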

Diplodia maydis (Dm) = test: Growth inhibition assay of fungal pathogens; type: cell-based; details: Stenocarpella maydis, 48 h, read-out: Concentration at 90% Inhibition Dm
Procedure, shortened: (§3)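 Spores of Fm, Bc and Dm were suspended in 17% V8 liquid medium, while Rs was inoculated as 1.5 mm mycelial plugs in ¼ PDB. Compounds were tested at final 50, 10 and 2 ppm or 2, 0.4 and 0.08 ppm. Percent growth inhibition at 48 h versus 2% DMSO came from OD600 and visual ratings.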

Rhizoctonia solani (Rs) = test: Growth inhibition assay of fungal pathogens; type: cell-based; details: 48 h, read-out: Concentration at 90% Inhibition Rs
Procedure, shortened: as §3

[3] = test system: Fusarium moniliforme (Fm); test: Growth inhibition assay of fungal pathogens; type: cell-based; details: for IC90: Fusarium verticillioides, 48 h, read-out: Concentration at 90% Inhibition Fm
Procedure, shortened: as §3

Septoria tritici (St) = test: Growth inhibition assay of fungal pathogens; type: cell-based; details: for IC90: Zymoseptoria tritici, read-out: Concentration at 90% Inhibition St
Procedure, shortened: as §2

[4] = test system: Fusarium virguliforme (Fv); test: Growth inhibition assay of fungal pathogens; type: cell-based; details: 48 h
Procedure, shortened: as §2

[5] = test system: Phytophthora capsici (Pc); test: Growth inhibition assay of fungal pathogens; type: cell-based; details: for IC90: Phytophthora capsici, read-out: Concentration at 90% Inhibition Pc
Procedure, shortened: as §2

Botrtyis cinerea (Bc) = test: Growth inhibition assay of fungal pathogens; type: cell-based; details: 48 h, read-out: Concentration at 90% Inhibition Bc
Procedure, shortened: as §3

human (hACC2) ACC2 = human (hACC2) ACC2 (Homo sapiens, UniProt O00763); test: In vitro Acetyl-CoA Carboxylase (ACC) inhibition assay (ADP-Glo), hACC2; type: biochemical
Description: The detailed procedure is as follows. […] 10 μL ADP glo reagent was added. […] 20 μL kinase detection reagent was added.
“NA” stands for “not assayed.”

fungal (fACC2) ACC2 = fungal (fACC2) ACC2 (UniProt Q00955); details: read-out: fACC2 IC50; fungal ACC2, ADP-Glo
[6] = ATCC90028, 3 replicates, MIC recorded at 48 h
[7] = ATCC22019, 3 replicates, MIC recorded at 48 h
[8] = ATCC6258, 3 replicates, MIC recorded at 48 h
[9] = Table 4a, 48 hours, read-out: Concentration at 90% Inhibition Fv
[10] = Table 4b, 48 hours, read-out: Concentration at 90% Inhibition Fv

Sequence of human (hACC2) ACC2 (O00763 whole entry): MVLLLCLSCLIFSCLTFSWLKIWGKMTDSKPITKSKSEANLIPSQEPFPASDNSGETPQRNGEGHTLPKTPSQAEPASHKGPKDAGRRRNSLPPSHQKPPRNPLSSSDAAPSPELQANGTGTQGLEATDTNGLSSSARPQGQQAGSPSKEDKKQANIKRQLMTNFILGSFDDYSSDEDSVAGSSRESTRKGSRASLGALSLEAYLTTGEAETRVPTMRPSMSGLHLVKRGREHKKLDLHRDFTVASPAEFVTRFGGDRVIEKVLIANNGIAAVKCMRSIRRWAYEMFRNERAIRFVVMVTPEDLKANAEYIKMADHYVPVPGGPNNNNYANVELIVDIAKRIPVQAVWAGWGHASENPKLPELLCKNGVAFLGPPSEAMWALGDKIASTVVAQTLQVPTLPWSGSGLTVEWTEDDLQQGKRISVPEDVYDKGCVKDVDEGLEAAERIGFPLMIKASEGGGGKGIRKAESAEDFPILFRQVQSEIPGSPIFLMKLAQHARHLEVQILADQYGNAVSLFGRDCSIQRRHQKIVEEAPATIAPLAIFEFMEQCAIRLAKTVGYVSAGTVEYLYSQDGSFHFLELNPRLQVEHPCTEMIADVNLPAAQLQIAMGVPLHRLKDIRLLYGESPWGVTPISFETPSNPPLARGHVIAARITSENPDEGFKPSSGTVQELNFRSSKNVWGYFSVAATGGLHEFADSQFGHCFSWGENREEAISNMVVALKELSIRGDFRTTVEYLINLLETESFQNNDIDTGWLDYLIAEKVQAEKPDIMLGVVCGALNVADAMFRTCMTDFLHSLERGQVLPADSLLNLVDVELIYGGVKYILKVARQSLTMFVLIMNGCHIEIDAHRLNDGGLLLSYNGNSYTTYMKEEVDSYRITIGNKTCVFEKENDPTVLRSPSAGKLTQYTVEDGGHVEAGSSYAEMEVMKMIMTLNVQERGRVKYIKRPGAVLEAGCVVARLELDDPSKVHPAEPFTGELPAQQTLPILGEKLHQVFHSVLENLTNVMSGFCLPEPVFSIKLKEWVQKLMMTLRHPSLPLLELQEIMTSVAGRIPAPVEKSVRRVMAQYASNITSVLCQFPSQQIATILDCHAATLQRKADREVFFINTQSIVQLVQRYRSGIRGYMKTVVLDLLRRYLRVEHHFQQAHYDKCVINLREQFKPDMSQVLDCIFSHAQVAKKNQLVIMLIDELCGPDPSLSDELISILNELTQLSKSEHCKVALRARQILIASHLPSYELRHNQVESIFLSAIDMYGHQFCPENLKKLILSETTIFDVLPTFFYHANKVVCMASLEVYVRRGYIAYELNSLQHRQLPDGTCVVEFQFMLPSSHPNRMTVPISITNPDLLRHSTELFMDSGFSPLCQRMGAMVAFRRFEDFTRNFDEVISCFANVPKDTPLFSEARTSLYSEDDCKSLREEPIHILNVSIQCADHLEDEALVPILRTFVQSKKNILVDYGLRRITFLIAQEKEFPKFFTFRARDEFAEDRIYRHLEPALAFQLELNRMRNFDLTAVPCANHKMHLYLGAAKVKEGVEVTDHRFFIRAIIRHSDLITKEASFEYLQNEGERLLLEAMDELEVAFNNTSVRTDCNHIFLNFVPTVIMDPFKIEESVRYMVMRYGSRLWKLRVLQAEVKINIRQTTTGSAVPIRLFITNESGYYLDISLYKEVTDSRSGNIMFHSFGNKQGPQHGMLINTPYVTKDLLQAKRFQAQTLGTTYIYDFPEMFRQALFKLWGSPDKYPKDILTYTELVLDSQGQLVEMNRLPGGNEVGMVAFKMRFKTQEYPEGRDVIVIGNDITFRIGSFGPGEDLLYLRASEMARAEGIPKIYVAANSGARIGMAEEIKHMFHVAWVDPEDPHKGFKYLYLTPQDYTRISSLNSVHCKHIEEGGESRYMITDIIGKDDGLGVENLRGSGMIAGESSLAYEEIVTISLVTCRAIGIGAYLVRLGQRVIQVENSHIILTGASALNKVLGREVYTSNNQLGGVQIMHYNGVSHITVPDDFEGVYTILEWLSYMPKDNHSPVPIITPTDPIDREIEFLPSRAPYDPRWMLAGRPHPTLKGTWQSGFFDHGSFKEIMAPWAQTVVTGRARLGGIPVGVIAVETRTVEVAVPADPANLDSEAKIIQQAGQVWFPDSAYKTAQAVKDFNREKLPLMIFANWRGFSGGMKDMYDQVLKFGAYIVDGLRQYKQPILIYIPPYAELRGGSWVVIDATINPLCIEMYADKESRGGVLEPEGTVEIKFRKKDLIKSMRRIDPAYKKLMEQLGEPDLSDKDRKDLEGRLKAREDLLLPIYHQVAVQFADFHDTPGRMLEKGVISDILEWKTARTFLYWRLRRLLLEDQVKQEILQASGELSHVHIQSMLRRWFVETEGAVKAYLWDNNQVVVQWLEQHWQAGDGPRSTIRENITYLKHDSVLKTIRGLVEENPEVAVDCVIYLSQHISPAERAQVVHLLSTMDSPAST
Sequence of fungal (fACC2) ACC2 (Q00955 whole entry): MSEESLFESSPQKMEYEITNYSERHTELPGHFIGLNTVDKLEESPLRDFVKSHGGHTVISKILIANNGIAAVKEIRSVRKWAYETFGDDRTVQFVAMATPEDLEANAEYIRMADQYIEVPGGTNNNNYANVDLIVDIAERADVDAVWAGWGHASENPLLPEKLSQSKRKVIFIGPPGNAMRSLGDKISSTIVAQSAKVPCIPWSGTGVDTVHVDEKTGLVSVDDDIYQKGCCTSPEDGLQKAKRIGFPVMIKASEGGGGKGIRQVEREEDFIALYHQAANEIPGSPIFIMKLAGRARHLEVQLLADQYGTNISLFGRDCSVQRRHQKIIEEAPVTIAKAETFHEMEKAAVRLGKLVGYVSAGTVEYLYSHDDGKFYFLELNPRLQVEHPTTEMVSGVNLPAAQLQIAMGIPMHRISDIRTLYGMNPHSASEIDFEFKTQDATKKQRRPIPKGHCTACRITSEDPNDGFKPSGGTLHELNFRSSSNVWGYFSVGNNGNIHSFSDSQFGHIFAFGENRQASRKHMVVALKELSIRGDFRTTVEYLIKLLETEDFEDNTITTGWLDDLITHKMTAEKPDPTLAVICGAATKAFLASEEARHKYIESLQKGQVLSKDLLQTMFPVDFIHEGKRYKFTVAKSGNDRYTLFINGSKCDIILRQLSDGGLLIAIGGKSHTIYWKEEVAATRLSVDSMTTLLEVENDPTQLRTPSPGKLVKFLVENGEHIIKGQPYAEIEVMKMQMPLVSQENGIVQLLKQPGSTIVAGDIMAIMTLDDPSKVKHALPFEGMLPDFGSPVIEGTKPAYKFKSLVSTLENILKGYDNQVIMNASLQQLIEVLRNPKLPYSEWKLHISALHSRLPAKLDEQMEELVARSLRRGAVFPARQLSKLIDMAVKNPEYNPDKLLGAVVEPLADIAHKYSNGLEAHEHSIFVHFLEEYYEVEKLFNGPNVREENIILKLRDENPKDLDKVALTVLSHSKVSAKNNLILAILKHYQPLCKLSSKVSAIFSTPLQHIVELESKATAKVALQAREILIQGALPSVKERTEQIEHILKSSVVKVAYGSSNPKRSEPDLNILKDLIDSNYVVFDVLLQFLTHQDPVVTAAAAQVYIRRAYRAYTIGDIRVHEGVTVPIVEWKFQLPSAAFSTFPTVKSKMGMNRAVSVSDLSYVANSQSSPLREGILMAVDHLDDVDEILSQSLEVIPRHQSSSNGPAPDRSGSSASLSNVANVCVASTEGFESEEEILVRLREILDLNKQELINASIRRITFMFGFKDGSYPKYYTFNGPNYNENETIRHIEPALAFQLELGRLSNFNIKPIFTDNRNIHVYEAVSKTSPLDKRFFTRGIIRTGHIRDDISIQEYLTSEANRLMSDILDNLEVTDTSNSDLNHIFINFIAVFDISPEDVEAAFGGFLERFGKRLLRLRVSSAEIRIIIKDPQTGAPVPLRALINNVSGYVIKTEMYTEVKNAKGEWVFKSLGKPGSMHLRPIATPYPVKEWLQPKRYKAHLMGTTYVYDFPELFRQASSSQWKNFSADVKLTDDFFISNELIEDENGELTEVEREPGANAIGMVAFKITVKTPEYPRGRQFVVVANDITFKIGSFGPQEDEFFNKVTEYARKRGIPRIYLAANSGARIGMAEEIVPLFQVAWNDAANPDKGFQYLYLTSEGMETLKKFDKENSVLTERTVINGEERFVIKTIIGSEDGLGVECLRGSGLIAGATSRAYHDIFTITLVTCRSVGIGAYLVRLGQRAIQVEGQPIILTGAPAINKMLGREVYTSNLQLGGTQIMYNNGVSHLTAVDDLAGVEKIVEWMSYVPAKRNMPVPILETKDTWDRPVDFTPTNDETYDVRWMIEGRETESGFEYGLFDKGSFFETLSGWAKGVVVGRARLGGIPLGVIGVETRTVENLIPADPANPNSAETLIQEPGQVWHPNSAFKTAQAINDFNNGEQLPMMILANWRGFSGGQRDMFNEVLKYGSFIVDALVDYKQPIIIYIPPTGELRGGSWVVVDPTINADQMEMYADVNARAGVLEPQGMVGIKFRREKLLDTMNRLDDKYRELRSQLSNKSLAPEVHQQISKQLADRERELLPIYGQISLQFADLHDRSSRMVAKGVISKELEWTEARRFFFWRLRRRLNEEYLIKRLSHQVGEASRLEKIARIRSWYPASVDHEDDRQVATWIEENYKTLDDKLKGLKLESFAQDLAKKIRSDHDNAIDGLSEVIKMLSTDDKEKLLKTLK

Row | SMILES | MIC (C. albicans ATCC 90028; [6]) [µg/mL] | MIC [1, 7] [µg/mL] | MIC (C. krusei ATCC 6258; [8]) [µg/mL] | IC90 ([2]; Table 4a) [µg/mL] | IC90 ([2]; Table 4b) [µg/mL] | IC90 (Diplodia maydis (Dm); Table 4a) [µg/mL] | IC90 (Diplodia maydis (Dm); Table 4b) [µg/mL] | IC90 (Rhizoctonia solani (Rs); Table 4a) [µg/mL] | IC90 (Rhizoctonia solani (Rs); Table 4b) [µg/mL] | IC90 ([3]; Table 4a, 48 hours) [µg/mL] | Concentration at 90% Inhibition St (Septoria tritici (St); Table 4b, 48 hours) | IC90 (Septoria tritici (St); Table 4a, 48 hours) [µg/mL] | IC90 [4, 9] [µg/mL] | IC90 [4, 10] [µg/mL] | IC90 ([5]; Table 4a, 48 hours) [µg/mL] | Concentration at 90% Inhibition Pc ([5]; Table 4b, 48 hours) | IC90 (Botrtyis cinerea (Bc); Table 4a) [µg/mL] | IC90 (Botrtyis cinerea (Bc); Table 4b) [µg/mL] | IC50 (human (hACC2) ACC2) [nM] | IC50 (fungal (fACC2) ACC2) [nM] | other results
1 | COc1ccccc1[C@H](Cn1c(=O)n(C(C)(C)C(=O)N2CCCC2)c(=O)c2c(C)c(-n3cccn3)sc21)OC(C)C [Compound I-18, (R)-1-(2-isopropoxy-2-(2-methoxyphenyl)ethyl)-5-methyl-3-(2-methyl-1-oxo-2-(pyrrolidin-1-yl)propan-2-yl)-6-(H-pyrazol-1-yl)thieno[2,3-d]pyrimidine-2,4(1H,3H)-dione] | 1.1 to 2 (≈ 1.9 to 3.45 µM) | 2.1 to 4 (≈ 3.62 to 6.9 µM) | 2.1 to 4 (≈ 3.62 to 6.9 µM) | 2 (≈ 3.45 µM) | 2 (≈ 3.45 µM) | 2 (≈ 3.45 µM) | 2 (≈ 3.45 µM) | 0.4 (≈ 0.69 µM) | 0.4 (≈ 0.69 µM) | 0.08 (≈ 0.138 µM) | D (“D” provided a compound concentration of >50 ppm at 90% inhibition of fungal pathogens) | > 50 | 0.4 (≈ 0.69 µM) | 0.4 (≈ 0.69 µM) | > 50 | D (“D” provided a compound concentration of >50 ppm at 90% inhibition of fungal pathogens) | 2 (≈ 3.45 µM) | 2 (≈ 3.45 µM) | 3 to 10 | 0.6 to 3 | IC90 ([3]; Table 4b, 48 hours): 0.08 µg/mL (≈ 0.138 µM)
2 | COc1ccc(F)cc1[C@H](Cn1c(=O)n(C(C)(C)C(=O)N2CCCC2)c(=O)c2c(C)c(-n3cccn3)sc21)OC(C)C [Compound I-24, (R)-1-(2-(5-fluoro-2-methoxyphenyl)-2-isopropoxyethyl)-5-methyl-3-(2-methyl-1-oxo-1-(pyrrolidin-1-yl)propan-2-yl)-6-(1H-pyrazol-1-yl)thieno[2,3-d]pyrimidine-2,4(1H,3H)-dione] | > 4.1 | > 4.1 | 2.1 to 4 (≈ 3.51 to 6.69 µM) | 0.4 (≈ 0.669 µM) | 0.4 (≈ 0.669 µM) | 2 (≈ 3.35 µM) | 2 (≈ 3.35 µM) | 0.4 (≈ 0.669 µM) | 0.4 (≈ 0.669 µM) | 0.08 (≈ 0.134 µM) | D (“D” provided a compound concentration of >50 ppm at 90% inhibition of fungal pathogens) | > 50 | 0.4 (≈ 0.669 µM) | 0.4 (≈ 0.669 µM) | > 50 | D (“D” provided a compound concentration of >50 ppm at 90% inhibition of fungal pathogens) | 0.4 (≈ 0.669 µM) | 0.4 (≈ 0.669 µM) | 3 to 10 | 0.6 to 3 | Concentration at 90% Inhibition Fm ([3]; Table 4b, 48 hours): A A
3 | COc1ccc(F)cc1[C@H](Cn1c(=O)n(C(C)(C)C(=O)NC(C)C)c(=O)c2c(C)c(-n3cccn3)sc21)OC1CCC(=O)CC1 [Compound I-26, (R)-2-(1-(2-(5-fluoro-2-methoxyphenyl)-2-((4-oxocyclo-hexyl)oxy)ethyl)-5-methyl-2,4-dioxo-6-(1H-pyrazol-1-yl)-1,4-dihydro-thieno[2,3-d]pyrimidin-3(2H)-yl)-N-isopropyl-2-methylpropanamide] |  |  |  | > 50 | 10 (≈ 15.6 µM) | 2 (≈ 3.13 µM) | 2 (≈ 3.13 µM) | 2 (≈ 3.13 µM) | 2 (≈ 3.13 µM) |  |  |  |  |  |  |  | 0.4 (≈ 0.625 µM) | 0.4 (≈ 0.625 µM) | 3 to 10 | 0.6 to 3 | MIC (C. albicans ATCC 90028; ATCC90028, 48 h): 1.1 to 2 µg/mL (≈ 1.72 to 3.13 µM); MIC ([1]; ATCC22019, 48 h): 1.1 to 2 µg/mL (≈ 1.72 to 3.13 µM); MIC (C. krusei ATCC 6258; ATCC6258, 48 h): 0.25 to 1 µg/mL (≈ 0.391 to 1.56 µM); IC90 [3]: 0.08 µg/mL (≈ 0.125 µM); Concentration at 90% Inhibition Fm ([3]; Table 4a, 48 hours): A A; IC90 (Septoria tritici (St); 48 h, Table 4a): > 50 µg/mL; IC90 (Septoria tritici (St); 48 h, Table 4b): > 50 µg/mL; IC90 ([4]; read-out: Concentration at 90% Inhibition Fv, Table 4a, 48 hours): 2 µg/mL (≈ 3.13 µM); IC90 ([4]; read-out: Concentration at 90% Inhibition Fv, Table 4b, 48 hours): 2 µg/mL (≈ 3.13 µM); IC90 ([5]; 48 h, Table 4a): > 50 µg/mL; IC90 ([5]; 48 h, Table 4b): > 50 µg/mL
